This note sets out measurements from patent publication EP4810500A1, “IMIDAZOL-2-ONE DERIVATIVE AND USE THEREOF IN MEDICINE” (Haisco Pharmaceutical Group Co., Ltd., priority 2023, dated 2025).

Data set [1] concerns the target T1, OATP1B1 (Homo sapiens, UniProt Q9Y6L6).
T1 construct: expressed in transfected cells; host or cells: HEK293
T1 sequence (Q9Y6L6 1-691): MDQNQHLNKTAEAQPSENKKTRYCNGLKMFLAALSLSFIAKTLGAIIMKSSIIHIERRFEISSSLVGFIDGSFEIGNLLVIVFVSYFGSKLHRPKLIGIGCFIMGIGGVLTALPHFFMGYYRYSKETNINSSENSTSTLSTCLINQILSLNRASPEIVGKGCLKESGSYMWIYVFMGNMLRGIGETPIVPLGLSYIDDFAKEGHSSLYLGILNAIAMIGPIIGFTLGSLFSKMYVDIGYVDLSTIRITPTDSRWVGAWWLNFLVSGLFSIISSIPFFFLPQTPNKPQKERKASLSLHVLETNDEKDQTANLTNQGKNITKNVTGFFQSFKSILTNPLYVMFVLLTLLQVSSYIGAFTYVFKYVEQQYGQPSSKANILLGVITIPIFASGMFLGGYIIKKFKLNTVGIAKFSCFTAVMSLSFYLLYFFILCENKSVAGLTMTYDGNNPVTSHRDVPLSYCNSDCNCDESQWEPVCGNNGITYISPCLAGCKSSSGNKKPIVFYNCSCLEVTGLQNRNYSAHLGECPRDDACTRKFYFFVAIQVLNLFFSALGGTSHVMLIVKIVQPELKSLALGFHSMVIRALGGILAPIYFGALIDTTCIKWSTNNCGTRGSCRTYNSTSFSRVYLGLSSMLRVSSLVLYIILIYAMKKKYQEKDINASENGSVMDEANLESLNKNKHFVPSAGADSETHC
The experiment in a line: SLC transporter inhibition assay (HEK293-OATP1B1 cells). The note with it: test substance 0-30 µM, read-out: IC50 against OATP1B1. It is filed as in vitro ADME.
Description: (§2) The objective of this study was to evaluate the inhibitory effects of the test substance on the activities of the transporters OATP1B1 and OATP1B3.
(§3) HEK293-OATP1B1 and OATP1B3 cells were incubated with and without the test substance (0-30 µM) for the corresponding time. Samples were then collected, and the substrate content in the samples was detected by liquid chromatography-tandem mass spectrometry (LC-MS/MS). By calculating the transport activity of the transporter with and without the test substance, the percentage of transporter activity of the transporter-expressing cells at different administration concentrations of the test substance (%VC (Vehicle Control, solvent control), the percentage of transport activity of the transporter with and without the test substance) was obtained, and the half-maximal inhibitory concentration (IC50) was calculated from this.

Data set [2] concerns the target GLP-1R (Homo sapiens, UniProt P43220). Description: In vitro activity assay (cAMP HTRF, HEK293-CRE-luc-GLP-1R cells). Type of data set: cell-based. Set-up: expressed in transfected cells; host or cells: HEK293 (HEK293-CRE-luc-GLP-1R). The note with it: cAMP HTRF 665 nm/620 nm, 1 h incubation. The protocol:
HEK293-CRE-luc-GLP-1R cells were seeded into a 384-well cell culture plate (Greiner #781946) at a certain cell density (5 µL/well). 5 µl/well of 2× working solution was added to the 384-well microplate. The microplate was sealed with parafilm and incubated in a 37°C 5% CO2 incubator (Thermo) for 1 h. Subsequently, the detection was performed using the cAMP-GS HIRANGE KIT (PerkinElmer, 62AM6PEB), and detection reagents were prepared according to the kit instruction manual. After the incubation, the detection reagents were added to the 384-well microplate, and the microplate was incubated for 1 h at room temperature in the dark. HTRF signals at 665 nm and 620 nm were then measured using a multimode microplate reader. Data were exported from the microplate reader in Excel format. GraphPad Prism was opened. The logarithm of the sample concentration was calculated. Using the logarithm of concentration as the x-axis and the 665 nm/620 nm ratio as the y-axis, four-parameter logistic fitting was performed to obtain the EC50 value of the curve. Table 1: EC50 of compounds against GLP-1
(TR-FRET usually uses a lanthanide donor and a delayed reading to cut background.)

Data set [3] has as its target T2, CYP1A2 (Homo sapiens, UniProt P05177).
T2 construct: from tissue; host or cells: human liver microsomes
T2 sequence (P05177 1-516): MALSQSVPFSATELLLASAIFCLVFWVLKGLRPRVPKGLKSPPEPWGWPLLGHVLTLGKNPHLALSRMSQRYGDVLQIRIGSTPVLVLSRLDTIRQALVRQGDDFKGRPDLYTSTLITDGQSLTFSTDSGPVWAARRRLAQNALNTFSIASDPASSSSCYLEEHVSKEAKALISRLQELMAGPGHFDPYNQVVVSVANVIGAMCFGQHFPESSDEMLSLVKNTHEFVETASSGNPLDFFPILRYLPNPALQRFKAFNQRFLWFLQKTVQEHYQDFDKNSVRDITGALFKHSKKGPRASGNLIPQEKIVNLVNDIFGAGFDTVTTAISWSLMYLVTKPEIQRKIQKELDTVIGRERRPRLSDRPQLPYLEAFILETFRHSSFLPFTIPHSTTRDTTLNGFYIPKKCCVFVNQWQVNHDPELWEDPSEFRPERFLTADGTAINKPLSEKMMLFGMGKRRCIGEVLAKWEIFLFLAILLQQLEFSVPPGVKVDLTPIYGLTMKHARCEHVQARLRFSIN
The experiment in a line: CYP450 enzyme activity inhibition assay (human liver microsomes). It is filed as in vitro ADME. The settings on record: human, microsomes. As for the experimental part:
(§1) The purpose of this study was to evaluate the effects of the test compounds on the activities of five isoenzymes (CYP1A2, CYP2C9, CYP2C19, CYP2D6, and CYP3A4) of human liver microsomal cytochrome P450 (CYP) using an in vitro testing system. The specific probe substrates of CYP450 isoenzymes were incubated with human liver microsomes and test compounds of different concentrations, and reduced nicotinamide adenine dinucleotide phosphate (NADPH) was added to initiate the reaction. After the completion of the reaction, the sample was treated and liquid chromatography-tandem mass spectrometry (LC-MS/MS) was used to quantitatively detect metabolites produced by specific substrates. Changes in CYP enzyme activity were determined, and IC50 value was calculated to evaluate the inhibitory potential of the test compound on each CYP enzyme subtype.
For orientation: Liver microsomes are a subcellular fraction often used to study metabolism.

Data set [4] concerns the target T3, CYP3A4 (Homo sapiens, UniProt P08684).
T3 construct: from tissue; host or cells: human liver microsomes
The description is as above. Type of data set: in vitro ADME. The note with it: human, microsomes. As for the experimental part: as §1

Data set [5] concerns the target T4, CYP2D6 (Homo sapiens, UniProt P10635).
T4 construct: from tissue; host or cells: human liver microsomes
The description is as above. Type of data set: in vitro ADME. The settings on record: human, microsomes. The protocol:
as §1

Data set [6] addresses T5, CYP2C9 (Homo sapiens, UniProt P11712).
T5 construct: from tissue; host or cells: human liver microsomes
The description is as above. It is filed as in vitro ADME. The settings on record: human, microsomes. The protocol:
as §1

Data set [7] concerns the target T6, CYP2C19 (Homo sapiens, UniProt P33261).
T6 construct: from tissue; host or cells: human liver microsomes
Described as above. It is filed as in vitro ADME. The settings on record: human, microsomes. As for the experimental part: as §1

For data set [8], the target named is OATP1B3 (Homo sapiens, UniProt Q9NPD5). Description: in vitro. The note with it: oatp1b3 cells.
OATP1B3, sequence (Q9NPD5 whole entry, species assumed): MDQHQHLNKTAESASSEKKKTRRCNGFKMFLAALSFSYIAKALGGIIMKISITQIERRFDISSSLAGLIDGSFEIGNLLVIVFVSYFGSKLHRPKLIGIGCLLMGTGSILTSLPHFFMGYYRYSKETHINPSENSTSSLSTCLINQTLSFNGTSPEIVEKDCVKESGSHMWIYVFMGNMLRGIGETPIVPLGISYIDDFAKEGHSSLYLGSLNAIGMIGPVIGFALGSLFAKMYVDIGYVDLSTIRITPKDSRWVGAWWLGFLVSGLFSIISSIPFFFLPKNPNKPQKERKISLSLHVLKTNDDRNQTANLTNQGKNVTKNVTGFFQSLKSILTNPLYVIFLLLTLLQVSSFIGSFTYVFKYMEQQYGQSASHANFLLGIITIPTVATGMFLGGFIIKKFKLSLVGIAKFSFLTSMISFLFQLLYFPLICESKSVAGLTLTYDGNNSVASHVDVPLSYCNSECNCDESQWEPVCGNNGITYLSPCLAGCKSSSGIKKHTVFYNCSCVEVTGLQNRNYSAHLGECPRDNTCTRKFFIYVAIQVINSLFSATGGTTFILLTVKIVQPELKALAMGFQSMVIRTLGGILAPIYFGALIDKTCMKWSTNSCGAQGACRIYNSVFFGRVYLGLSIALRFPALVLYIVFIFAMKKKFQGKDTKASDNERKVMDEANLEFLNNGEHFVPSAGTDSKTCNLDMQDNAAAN
Description: as §2, §3

Bounds are passed on as bounds.

T4 sequence (P10635 whole entry): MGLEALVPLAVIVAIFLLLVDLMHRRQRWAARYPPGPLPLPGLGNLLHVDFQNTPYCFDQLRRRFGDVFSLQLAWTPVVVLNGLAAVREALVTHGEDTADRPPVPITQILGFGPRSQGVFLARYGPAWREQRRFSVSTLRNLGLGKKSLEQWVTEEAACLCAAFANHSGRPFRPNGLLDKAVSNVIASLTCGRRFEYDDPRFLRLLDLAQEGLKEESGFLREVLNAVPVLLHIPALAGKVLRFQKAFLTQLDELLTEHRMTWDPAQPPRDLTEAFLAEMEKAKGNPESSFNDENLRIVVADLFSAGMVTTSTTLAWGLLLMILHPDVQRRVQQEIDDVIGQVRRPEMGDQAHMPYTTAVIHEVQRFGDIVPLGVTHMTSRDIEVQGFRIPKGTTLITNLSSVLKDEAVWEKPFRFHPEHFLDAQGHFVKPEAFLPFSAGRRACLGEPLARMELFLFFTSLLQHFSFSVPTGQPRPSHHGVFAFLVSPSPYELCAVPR
T6 sequence (P33261 whole entry): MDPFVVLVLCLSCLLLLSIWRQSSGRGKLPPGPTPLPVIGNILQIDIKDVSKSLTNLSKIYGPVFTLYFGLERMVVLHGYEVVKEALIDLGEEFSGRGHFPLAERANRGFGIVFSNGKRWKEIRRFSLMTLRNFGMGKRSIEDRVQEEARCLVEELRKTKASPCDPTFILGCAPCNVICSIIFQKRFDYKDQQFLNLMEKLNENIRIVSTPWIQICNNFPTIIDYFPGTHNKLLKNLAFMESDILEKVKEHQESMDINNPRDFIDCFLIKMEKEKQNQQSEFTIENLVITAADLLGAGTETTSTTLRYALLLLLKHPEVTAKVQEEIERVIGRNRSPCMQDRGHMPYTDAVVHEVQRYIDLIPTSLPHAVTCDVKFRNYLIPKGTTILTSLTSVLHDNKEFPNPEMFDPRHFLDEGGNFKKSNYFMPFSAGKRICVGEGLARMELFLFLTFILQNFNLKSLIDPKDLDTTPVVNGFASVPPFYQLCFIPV
GLP-1R, sequence (P43220 24-463): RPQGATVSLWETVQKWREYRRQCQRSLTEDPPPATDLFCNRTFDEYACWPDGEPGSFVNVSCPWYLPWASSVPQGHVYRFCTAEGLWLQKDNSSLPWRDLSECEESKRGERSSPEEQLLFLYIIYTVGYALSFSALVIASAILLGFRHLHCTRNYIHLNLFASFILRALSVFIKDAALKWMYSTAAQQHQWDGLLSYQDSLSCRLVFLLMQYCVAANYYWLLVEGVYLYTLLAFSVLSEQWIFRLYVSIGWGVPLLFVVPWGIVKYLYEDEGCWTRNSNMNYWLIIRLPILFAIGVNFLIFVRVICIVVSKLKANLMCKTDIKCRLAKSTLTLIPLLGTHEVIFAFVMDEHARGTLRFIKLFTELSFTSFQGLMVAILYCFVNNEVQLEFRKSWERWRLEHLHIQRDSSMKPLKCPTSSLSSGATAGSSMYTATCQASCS
T5 sequence (P11712 whole entry): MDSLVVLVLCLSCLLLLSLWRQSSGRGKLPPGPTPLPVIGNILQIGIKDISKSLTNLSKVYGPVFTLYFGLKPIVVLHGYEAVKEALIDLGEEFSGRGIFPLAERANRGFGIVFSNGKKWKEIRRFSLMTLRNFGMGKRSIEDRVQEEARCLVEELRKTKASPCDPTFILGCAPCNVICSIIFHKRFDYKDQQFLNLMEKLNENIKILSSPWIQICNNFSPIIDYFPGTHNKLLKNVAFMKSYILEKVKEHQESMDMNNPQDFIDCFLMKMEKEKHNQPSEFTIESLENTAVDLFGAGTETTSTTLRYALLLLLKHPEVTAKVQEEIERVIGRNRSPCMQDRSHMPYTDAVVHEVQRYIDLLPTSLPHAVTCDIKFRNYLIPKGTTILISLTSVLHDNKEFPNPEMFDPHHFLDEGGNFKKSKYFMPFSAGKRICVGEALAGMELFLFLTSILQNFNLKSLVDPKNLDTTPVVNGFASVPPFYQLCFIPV
T3 sequence (P08684 whole entry): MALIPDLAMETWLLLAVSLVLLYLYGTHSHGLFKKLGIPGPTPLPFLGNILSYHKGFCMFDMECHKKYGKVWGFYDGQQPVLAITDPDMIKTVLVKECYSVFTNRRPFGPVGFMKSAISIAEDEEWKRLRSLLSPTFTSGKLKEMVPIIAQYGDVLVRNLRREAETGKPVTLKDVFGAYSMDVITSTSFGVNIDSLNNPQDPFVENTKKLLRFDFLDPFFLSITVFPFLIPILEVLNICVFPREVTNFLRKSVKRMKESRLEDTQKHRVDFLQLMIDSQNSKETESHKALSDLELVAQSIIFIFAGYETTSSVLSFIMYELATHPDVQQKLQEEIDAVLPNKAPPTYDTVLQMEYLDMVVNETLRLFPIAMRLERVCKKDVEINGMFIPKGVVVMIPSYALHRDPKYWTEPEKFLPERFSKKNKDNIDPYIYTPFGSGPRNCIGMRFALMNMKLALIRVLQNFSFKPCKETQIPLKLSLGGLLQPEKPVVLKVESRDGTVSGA

In general, IC50 refers to the midpoint of a concentration-inhibition curve. What is called EC50 is the concentration needed to bring the measured effect to its halfway point. High values mean a need for much substance, low ones an effect from little substance. Turning to `C[C@H]1c2c(nn(-c3ccc(F)c(C4(F)CC4)c3)c2-n2ccn(-c3ccc4c(c3)N(C)C(=O)C43CCOCC3)c2=O)CCN1C(=O)c1cc2cc([C@H]3CCOC(C)(C)C3)ccc2n1[C@@]1(c2noc(=O)[nH]2)C[C@@H]1C` [Compound 6], the IC50 is more than 2 µM in data set [1]; more than 30 µM in data set [3]; more than 30 µM in data set [4]; more than 30 µM in data set [5]; more than 30 µM in data set [6]; more than 30 µM in data set [7]. The compound further displayed an IC50 in data set [8] of more than 1 µM. The compound also returned an EC50 in data set [2] of less than 0.001 µM.
